Here are results for three molecules from patent US20060099267A1, “High-dosage extended-release formulation of gepirone” (Fabre-Kramer Pharmaceuticals, Inc., priority 2004, published 2006).

For data set [1] the following is noted: in vivo; cited from earlier work.
In data set [2] the test system is presynaptic α-2-adrenoceptor. Particulars: cited from earlier work.
The nature of data set [3]: Open label, randomized, four-way crossover, single dose bioequivalence and pharmacokinetic study of extended-release gepirone tablets. The format is in vivo, human. Conditions: 40-80 mg dose range. The source says: Heretofore, efficacy and pharmacokinetic data for extended release gepirone tablets have been primarily obtained by administering one or multiple 20-mg extended-release gepirone tablets (similar to that described in the Preparation Example above).
To this end, an open label, randomized, four-way crossover, single dose study design was used with a washout phase of one week between different treatments. During each study period, the subjects were hospitalized from the afternoon before until 36 hours after gepirone administration. Following discharge, blood sample collections were taken at 48, 60, and 72 hours post-administration. […]
To determine the bioequivalence of one 80-mg extended-release gepirone tablet versus four 20-mg extended-release gepirone tablets the following pharmacokinetic parameter were calculated for each subject and treatment: • tmax (TMAX) • The actual time of occurrence of Cmax. • Cmax (CMAX) • The measured maximum concentration in plasma after single dosing. • dn-Cmax (DCMAX) • The dose-normalized Cmax was calculated as Cmax/Dose. • λZ (LZ) and t1/2 (THALF) • The slope (β) of the terminal log-linear phase of the concentration-versus-time curve was determined by linear regression. […] The terminal elimination rate constant (λZ) was defined as −β from which the elimination half-life (t1/2) was calculated as […]. […]

For data set [4] the following is noted: immediate-release formulations; cited from earlier work.
The conditions of data set [5]: immediate-release formulations; cited from earlier work. This is another data set of the same source.
Data set [6] concerns post-synaptic receptors in the hippocampus. Particulars: cited from earlier work.
The next data set concerns the target T1, 5-HT1A receptors (Homo sapiens, UniProt P08908).
T1 sequence (P08908 1-422): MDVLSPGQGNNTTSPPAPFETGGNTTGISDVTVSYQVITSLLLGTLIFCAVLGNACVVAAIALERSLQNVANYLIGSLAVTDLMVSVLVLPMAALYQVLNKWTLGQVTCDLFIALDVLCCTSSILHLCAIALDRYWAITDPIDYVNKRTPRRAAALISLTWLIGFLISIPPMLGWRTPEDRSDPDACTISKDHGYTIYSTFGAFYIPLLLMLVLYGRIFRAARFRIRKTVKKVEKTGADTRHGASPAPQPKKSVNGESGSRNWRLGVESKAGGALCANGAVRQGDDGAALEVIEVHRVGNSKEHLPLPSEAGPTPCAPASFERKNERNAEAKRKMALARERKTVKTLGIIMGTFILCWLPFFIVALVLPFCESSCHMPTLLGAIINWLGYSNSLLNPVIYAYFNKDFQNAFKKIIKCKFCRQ
Particulars: cited from earlier work.

The structures appear in SMILES notation. Counter-ions that a name gives are not always drawn.

On to `c1cnc(N2CCNCC2)nc1` [1-PP, 1-(2-pyrimidinyl)piperazine], for which the “antidepressant-like characteristics in pre-clinical tests” value in data set [1] is “did not exhibit antidepressant-like characteristics”. The “activity at presynaptic α-2-adrenoceptor” value in data set [2] is reported as “antagonist”.
In the case of `CC1(C)CC(=O)N(CCCCN2CCN(c3ncccn3)CC2)C(=O)C1` [gepirone, 4,4-dimethyl-1-[4-[4-(2-pyrimidinyl)-1-piperazinyl]-butyl]-2,6-piperidinedione hydrochloride], the dose proportionality result in data set [3] is listed as “dose proportionality”. Moreover, the “time to maximum drug concentration of gepirone in the bloodstream (Tmax)” value in data set [4] is given as “about 1 hour”. The “T50 (time until 50% of the drug has been released under controlled in vitro conditions)” value in data set [5] was 2.5 to 3 h. Besides, the “agonism at post-synaptic receptors in the hippocampus” value in data set [6] was “partial agonist”.
Regarding `CC1(C)CC(=O)N(CCCCN2CCN(c3ncccn3)CC2)C(=O)C1O` (centres unmarked) [3′-OH gepirone], at 5-HT1A receptors, the “affinity for 5-HT1A receptors” value was “significant affinity”. The “agonism at post-synaptic receptors in the hippocampus” value in data set [6] is reported as “full agonism”.
